{"source": "ChEMBL document CHEMBL5034031", "about": "“Discovery of Next-Generation Tropomyosin Receptor Kinase Inhibitors for Combating Multiple Resistance Associated with Protein Mutation” (J Med Chem, 2021)", "key": {"[1]": {"target": "T1, High affinity nerve growth factor receptor (Homo sapiens, UniProt P04629)", "test": "Inhibition of TRKA (unknown origin) at 1 uM relative to control"}, "[2]": {"target": "Serine/threonine-protein kinase Chk1 (Homo sapiens) (UniProt O14757)", "sequence (O14757 whole entry)": "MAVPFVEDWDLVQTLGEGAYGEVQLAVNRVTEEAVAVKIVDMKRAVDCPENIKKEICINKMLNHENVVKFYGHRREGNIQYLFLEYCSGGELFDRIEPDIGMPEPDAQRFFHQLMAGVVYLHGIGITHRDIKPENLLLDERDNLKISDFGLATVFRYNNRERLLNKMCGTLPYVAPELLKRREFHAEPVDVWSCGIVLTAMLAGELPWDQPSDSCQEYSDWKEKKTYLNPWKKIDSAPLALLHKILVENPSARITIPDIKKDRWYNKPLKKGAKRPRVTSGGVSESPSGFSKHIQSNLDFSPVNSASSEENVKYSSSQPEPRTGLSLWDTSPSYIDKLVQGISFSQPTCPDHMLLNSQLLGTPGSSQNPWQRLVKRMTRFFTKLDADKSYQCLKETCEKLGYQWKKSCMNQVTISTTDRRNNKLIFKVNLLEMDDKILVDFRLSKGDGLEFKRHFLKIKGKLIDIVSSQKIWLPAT", "test": "Inhibition of CHK1 (unknown origin) at 1 uM relative to control"}, "[3]": {"target": "Platelet-derived growth factor receptor alpha (Homo sapiens) (UniProt P16234)", "sequence (P16234 whole entry)": "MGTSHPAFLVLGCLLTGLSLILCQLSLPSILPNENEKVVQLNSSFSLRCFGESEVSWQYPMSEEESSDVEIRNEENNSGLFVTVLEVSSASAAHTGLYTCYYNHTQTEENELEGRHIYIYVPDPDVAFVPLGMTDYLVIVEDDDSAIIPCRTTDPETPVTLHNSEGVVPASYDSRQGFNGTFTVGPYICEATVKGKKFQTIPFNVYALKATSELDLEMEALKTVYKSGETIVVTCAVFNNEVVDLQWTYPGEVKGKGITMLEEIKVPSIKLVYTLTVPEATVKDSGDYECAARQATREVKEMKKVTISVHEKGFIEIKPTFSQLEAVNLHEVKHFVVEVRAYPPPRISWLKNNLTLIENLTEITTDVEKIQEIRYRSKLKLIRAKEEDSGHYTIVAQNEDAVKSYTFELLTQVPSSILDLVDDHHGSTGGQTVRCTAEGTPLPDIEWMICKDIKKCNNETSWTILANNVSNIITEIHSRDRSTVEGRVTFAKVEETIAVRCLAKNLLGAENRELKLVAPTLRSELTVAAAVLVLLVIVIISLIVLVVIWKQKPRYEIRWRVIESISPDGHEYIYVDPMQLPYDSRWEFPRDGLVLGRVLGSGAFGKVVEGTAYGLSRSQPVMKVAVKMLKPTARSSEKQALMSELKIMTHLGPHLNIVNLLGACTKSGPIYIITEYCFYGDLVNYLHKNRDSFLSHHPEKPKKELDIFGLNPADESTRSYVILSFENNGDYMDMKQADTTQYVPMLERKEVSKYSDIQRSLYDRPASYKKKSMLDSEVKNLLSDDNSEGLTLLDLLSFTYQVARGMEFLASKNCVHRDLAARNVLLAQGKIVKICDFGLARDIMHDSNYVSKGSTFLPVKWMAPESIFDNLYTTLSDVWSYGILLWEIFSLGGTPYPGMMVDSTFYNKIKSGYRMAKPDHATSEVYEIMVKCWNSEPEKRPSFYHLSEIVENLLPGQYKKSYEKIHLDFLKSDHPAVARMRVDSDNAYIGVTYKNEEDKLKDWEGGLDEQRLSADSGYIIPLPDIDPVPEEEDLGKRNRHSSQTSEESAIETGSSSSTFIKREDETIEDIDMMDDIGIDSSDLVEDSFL", "test": "Inhibition of PDGFRalpha (unknown origin) at 1 uM relative to control"}, "[4]": {"test": "Tmax in Beagle dog at 5 mg/kg, ig measured upto 24 hrs by LC-MS/MS analysis", "format": "ADME, organism-based, Canis lupus familiaris", "settings": "in vivo, po"}, "BaF3 [5]": {"system": "BaF3", "test": "Antitumor activity against mouse BAF3 cells harboring TMP3 fused TRKA G595R mutant xenografted in BALB/c nude mouse assessed as tumor growth inhibition at 30 mg/kg, po administered twice daily for 12 to […] consecutive days", "format": "functional", "settings": "time 12-14 day, read-out: TGI"}, "[6]": {"test": "Clearance in Sprague-Dawley rat at 1 mg/kg, iv measured upto 24 hrs by LC-MS/MS analysis", "format": "ADME, organism-based", "settings": "in vivo"}, "[7]": {"target": "NT-3 growth factor receptor (Homo sapiens, UniProt Q16288, G623R)", "sequence (Q16288 32-839 G623R limits assumed)": "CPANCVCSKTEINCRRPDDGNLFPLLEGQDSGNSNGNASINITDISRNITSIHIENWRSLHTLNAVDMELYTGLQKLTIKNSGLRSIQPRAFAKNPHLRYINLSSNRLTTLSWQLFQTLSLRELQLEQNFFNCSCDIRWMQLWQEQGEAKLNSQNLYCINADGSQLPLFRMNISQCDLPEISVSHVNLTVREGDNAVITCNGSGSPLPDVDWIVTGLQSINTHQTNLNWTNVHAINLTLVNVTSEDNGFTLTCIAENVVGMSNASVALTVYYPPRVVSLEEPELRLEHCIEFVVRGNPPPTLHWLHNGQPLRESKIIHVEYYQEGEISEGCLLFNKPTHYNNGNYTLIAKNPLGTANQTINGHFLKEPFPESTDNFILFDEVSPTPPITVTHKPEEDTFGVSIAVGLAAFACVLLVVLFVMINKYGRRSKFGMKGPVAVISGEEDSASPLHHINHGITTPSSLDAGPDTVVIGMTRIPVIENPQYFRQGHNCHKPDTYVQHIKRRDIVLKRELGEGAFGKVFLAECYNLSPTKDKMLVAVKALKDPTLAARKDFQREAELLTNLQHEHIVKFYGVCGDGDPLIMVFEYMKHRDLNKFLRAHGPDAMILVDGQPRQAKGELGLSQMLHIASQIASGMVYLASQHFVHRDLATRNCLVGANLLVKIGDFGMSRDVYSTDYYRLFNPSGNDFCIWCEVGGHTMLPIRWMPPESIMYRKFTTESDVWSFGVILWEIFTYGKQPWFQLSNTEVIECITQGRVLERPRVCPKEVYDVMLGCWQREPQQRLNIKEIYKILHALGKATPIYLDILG"}, "[8]": {"test": "Cmax in Beagle dog at 1 mg/kg, iv measured upto 24 hrs by LC-MS/MS analysis", "format": "ADME, organism-based, Canis lupus familiaris", "design": "route intravenous, dose 1 mg/kg, time <=24", "settings": "in vivo"}, "[9]": {"target": "SRSF protein kinase 1 (Homo sapiens) (UniProt Q96SB4)", "sequence (Q96SB4 whole entry)": "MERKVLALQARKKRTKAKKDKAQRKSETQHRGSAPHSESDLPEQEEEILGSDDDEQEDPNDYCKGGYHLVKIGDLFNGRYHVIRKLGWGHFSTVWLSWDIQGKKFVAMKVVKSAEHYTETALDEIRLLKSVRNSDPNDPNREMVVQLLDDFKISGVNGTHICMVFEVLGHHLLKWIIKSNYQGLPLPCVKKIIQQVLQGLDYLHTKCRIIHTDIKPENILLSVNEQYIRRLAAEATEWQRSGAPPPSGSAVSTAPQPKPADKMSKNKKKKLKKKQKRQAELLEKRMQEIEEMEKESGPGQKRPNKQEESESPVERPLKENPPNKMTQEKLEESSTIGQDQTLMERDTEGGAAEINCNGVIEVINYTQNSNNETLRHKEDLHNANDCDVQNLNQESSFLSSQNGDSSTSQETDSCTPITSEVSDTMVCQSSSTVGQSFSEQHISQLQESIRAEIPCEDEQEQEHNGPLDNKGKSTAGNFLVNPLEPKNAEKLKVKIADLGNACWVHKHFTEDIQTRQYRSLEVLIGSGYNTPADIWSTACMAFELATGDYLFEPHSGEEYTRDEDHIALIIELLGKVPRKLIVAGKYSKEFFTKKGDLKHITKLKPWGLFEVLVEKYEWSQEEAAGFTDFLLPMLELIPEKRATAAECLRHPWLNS", "test": "Inhibition of SRPK1 (unknown origin) at 1 uM relative to control"}, "[10]": {"target": "Tyrosine-protein kinase JAK1 (Homo sapiens) (UniProt P23458)", "sequence (P23458 whole entry)": "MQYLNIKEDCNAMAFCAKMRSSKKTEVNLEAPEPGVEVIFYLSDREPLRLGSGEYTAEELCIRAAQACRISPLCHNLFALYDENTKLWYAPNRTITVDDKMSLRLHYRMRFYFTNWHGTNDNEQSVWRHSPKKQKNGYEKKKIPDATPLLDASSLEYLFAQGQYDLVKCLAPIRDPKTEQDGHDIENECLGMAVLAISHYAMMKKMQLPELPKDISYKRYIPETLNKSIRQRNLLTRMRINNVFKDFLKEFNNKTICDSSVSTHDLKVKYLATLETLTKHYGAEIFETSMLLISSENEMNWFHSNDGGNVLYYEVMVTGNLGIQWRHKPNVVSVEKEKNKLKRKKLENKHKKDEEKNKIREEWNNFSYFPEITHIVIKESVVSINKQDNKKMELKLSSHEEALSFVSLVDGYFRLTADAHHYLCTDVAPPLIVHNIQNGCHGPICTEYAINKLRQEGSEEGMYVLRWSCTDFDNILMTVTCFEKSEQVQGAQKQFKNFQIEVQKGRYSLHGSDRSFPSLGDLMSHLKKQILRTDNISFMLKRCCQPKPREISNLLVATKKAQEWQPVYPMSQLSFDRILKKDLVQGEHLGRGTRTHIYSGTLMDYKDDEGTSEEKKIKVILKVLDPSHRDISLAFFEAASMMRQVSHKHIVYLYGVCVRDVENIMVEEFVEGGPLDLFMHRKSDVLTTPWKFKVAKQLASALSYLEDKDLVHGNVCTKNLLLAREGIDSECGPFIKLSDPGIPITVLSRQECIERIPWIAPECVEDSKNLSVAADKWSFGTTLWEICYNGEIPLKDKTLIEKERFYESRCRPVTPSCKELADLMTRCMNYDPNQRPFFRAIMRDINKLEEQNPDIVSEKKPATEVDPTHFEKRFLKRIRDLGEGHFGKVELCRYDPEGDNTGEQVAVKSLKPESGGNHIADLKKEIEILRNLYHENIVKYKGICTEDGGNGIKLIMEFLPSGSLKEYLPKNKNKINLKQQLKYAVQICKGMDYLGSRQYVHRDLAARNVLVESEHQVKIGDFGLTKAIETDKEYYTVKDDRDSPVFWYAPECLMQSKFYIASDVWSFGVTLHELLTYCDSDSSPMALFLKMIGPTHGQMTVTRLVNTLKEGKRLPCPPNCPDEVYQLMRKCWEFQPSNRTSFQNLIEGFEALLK", "test": "Inhibition of JAK1 (unknown origin) at 1 uM relative to control"}, "[11]": {"target": "Rho-associated protein kinase 1 (Homo sapiens) (UniProt Q13464)", "test": "Inhibition of ROCK1 (unknown origin) at 1 uM relative to control"}, "[12]": {"target": "Epidermal growth factor receptor (Homo sapiens) (UniProt P00533)", "test": "Inhibition of EGFR (unknown origin) at 1 uM relative to control"}, "[13]": {"target": "High affinity nerve growth factor receptor (Homo sapiens, UniProt P04629, G595R)"}, "[14]": {"test": "Volume of distribution in Beagle dog at 5 mg/kg, ig measured upto 24 hrs by LC-MS/MS analysis", "format": "ADME, organism-based, Canis lupus familiaris", "settings": "in vivo, po"}, "hERG (KCNH2)": {"target": "hERG (KCNH2) (Homo sapiens, UniProt Q12809)", "test": "Inhibition of hERG at 10 uM relative to control"}, "[15]": {"test": "Half life in Beagle dog at 5 mg/kg, ig measured upto 24 hrs by LC-MS/MS analysis", "format": "ADME, organism-based, Canis lupus familiaris", "settings": "in vivo, po"}, "[16]": {"test": "AUC(0 to infinity) in Sprague-Dawley rat at 1 mg/kg, iv measured upto 24 hrs by LC-MS/MS analysis", "format": "ADME, organism-based", "design": "route intravenous, dose 1 mg/kg, time <=24", "settings": "in vivo"}, "[17]": {"test": "Volume of distribution in Sprague-Dawley rat 1 mg/kg, iv measured upto 24 hrs by LC-MS/MS analysis", "format": "ADME, organism-based", "settings": "in vivo, read-out: Vz"}, "[18]": {"target": "ALK tyrosine kinase receptor (Homo sapiens) (UniProt Q9UM73)", "test": "Inhibition of ALK (unknown origin) at 1 uM relative to control"}, "BaF3 [19]": {"system": "BaF3", "test": "Antiproliferative activity against mouse BaF3 cells transfected with ETV6-wild type TRKC assessed as cell viability incubated for 72 hrs by CCK8 assay", "format": "functional, cell-based", "settings": "BaF3, 72 h"}, "[20]": {"test": "Oral bioavailability in Sprague-Dawley rat at 5 mg/kg measured upto 24 hrs by LC-MS/MS analysis", "format": "ADME, organism-based", "settings": "in vivo"}, "[21]": {"target": "Tyrosine-protein kinase receptor UFO (Homo sapiens) (UniProt P30530)", "test": "Inhibition of AXL (unknown origin) at 1 uM relative to control"}, "[22]": {"target": "Serine/threonine-protein kinase pim-1 (Homo sapiens) (UniProt P11309)", "test": "Inhibition of PIM1 (unknown origin) at 1 uM relative to control"}, "[23]": {"target": "Tyrosine-protein kinase ABL2 (Homo sapiens) (UniProt P42684)", "test": "Inhibition of ABL2 (unknown origin) at 1 uM relative to control"}, "[24]": {"target": "T1, High affinity nerve growth factor receptor"}, "BaF3 [25]": {"system": "BaF3", "format": "functional, cell-based", "settings": "Mus musculus, BaF3, 72 h"}, "[26]": {"test": "Volume of distribution in Beagle dog at 1 mg/kg, iv measured upto 24 hrs by LC-MS/MS analysis", "format": "ADME, organism-based, Canis lupus familiaris", "settings": "in vivo, read-out: Vz"}, "[27]": {"test": "AUC(0 to infinity) in Beagle dog at 5 mg/kg, ig measured upto 24 hrs by LC-MS/MS analysis", "format": "ADME, organism-based, Canis lupus familiaris", "design": "route […], dose 5 mg/kg, time <=24", "settings": "in vivo, po"}, "[28]": {"target": "Vascular endothelial growth factor receptor 2 (Homo sapiens) (UniProt P35968)", "test": "Inhibition of KDR (unknown origin) at 1 uM relative to control"}, "[29]": {"target": "Serine/threonine-protein kinase PLK1 (Homo sapiens) (UniProt P53350)", "test": "Inhibition of PLK1 (unknown origin) at 1 uM relative to control"}, "[30]": {"target": "BDNF/NT-3 growth factors receptor (Homo sapiens) (UniProt Q16620)", "test": "Inhibition of TRKB (unknown origin) at 1 uM relative to control"}, "BaF3 [31]": {"system": "BaF3", "format": "functional, cell-based", "settings": "Mus musculus, BaF3, 72 h", "remark": "listed apart in the source"}, "BaF3 [32]": {"system": "BaF3", "test": "Antitumor activity against mouse BAF3 cells harboring ETV6 fused TRKC G623R mutant xenografted in BALB/c nude mouse assessed as tumor growth inhibition at 30 mg/kg, po administered twice daily for 12 to […] consecutive days", "format": "functional", "settings": "time 12-14 day, read-out: TGI"}, "[33]": {"test": "Plasma protein binding in human", "format": "ADME, cell-free", "settings": "read-out: PPB (converted)"}, "[34]": {"test": "Toxicity in BALB/c mouse xenografted with mouse BAF3 cells harboring TMP3 fused wild type TRKA assessed as body weight loss at 15 mg/kg, po administered twice daily for 12 to 14 consecutive days", "format": "organism-based", "settings": "in vivo, time 12-14 day"}, "BaF3 [35]": {"system": "BaF3", "test": "animal or person", "format": "functional", "settings": "Mus musculus, BaF3, po; dose 15 mg/kg; time 12-14 day; read-out: TGI"}, "[36]": {"target": "Serine/threonine-protein kinase DCLK2 (Homo sapiens) (UniProt Q8N568)", "sequence (Q8N568 whole entry)": "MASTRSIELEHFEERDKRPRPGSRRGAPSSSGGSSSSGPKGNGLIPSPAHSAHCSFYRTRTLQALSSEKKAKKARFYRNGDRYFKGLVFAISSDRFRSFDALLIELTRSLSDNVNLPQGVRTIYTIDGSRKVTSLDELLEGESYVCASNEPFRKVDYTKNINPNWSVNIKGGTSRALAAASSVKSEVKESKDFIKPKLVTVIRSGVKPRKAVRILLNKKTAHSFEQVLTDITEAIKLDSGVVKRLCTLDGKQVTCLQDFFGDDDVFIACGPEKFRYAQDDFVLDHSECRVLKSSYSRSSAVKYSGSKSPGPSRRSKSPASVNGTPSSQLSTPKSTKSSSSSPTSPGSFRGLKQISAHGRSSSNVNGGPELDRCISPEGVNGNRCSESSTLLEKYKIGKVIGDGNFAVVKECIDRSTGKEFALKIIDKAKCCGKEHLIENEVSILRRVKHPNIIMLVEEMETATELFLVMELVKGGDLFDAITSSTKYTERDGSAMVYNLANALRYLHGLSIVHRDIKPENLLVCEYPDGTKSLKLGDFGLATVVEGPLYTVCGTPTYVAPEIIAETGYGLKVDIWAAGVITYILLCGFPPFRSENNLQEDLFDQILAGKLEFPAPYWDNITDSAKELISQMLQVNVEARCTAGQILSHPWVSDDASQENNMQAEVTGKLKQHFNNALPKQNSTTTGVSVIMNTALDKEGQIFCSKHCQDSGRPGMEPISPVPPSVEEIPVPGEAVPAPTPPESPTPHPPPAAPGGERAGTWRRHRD", "test": "Inhibition of DCK2 (unknown origin) at 1 uM relative to control"}, "[37]": {"test": "Clearance in Beagle dog at 1 mg/kg, iv measured upto 24 hrs by LC-MS/MS analysis", "format": "ADME, organism-based, Canis lupus familiaris", "settings": "in vivo"}, "[38]": {"target": "Vascular endothelial growth factor receptor 1 (Homo sapiens) (UniProt P17948)", "test": "Inhibition of FLT1 (unknown origin) at 1 uM relative to control"}, "[39]": {"target": "Focal adhesion kinase 1 (Homo sapiens) (UniProt Q05397)", "test": "Inhibition of FAK (unknown origin) at 1 uM relative to control"}}, "data": [{"smiles": "C[C@@H](Nc1ccn2ncc(-c3cnn(CCO)c3)c2n1)c1cc(F)ccc1OCC(F)F", "values": [{"measurement": "inhibition", "setting": "[1]", "value": "> 80", "unit": "%"}, {"measurement": "inhibition", "setting": "[2]", "value": "< 50", "unit": "%"}, {"measurement": "inhibition", "setting": "[3]", "value": "< 50", "unit": "%"}, {"measurement": "Tmax", "setting": "[4]", "value": 49.8, "unit": "min"}, {"measurement": "inhibition in vivo at 30 mg/kg", "setting": "BaF3 [5]", "value": 61, "unit": "%"}, {"measurement": "clearance", "setting": "[6]", "value": 83.3, "unit": "mL/min/kg"}, {"measurement": "IC50", "setting": "[7]", "value": 0.6, "unit": "nM"}, {"measurement": "Cmax", "setting": "[8]", "value": 1500, "unit": "ng/mL"}, {"measurement": "inhibition", "setting": "[9]", "value": "< 50", "unit": "%"}, {"measurement": "inhibition", "setting": "[10]", "value": "> 80", "unit": "%"}, {"measurement": "inhibition", "setting": "[11]", "value": "< 50", "unit": "%"}, {"measurement": "inhibition", "setting": "[12]", "value": "< 50", "unit": "%"}, {"measurement": "IC50", "setting": "[13]", "value": 0.2, "unit": "nM"}, {"measurement": "Vz", "setting": "[14]", "value": 4.77, "unit": "L/kg"}, {"measurement": "inhibition at 10 µM", "setting": "hERG (KCNH2)", "value": 23, "unit": "%"}, {"measurement": "half-life", "setting": "[15]", "value": 377, "unit": "min"}, {"measurement": "AUC(0-inf)", "setting": "[16]", "value": 213, "unit": "ng·h/mL"}, {"measurement": "Vd", "setting": "[17]", "value": 40, "unit": "L/kg"}, {"measurement": "inhibition", "setting": "[18]", "value": "> 80", "unit": "%"}, {"measurement": "IC50", "setting": "BaF3 [19]", "value": 0.2, "unit": "nM"}, {"measurement": "bioavailability", "setting": "[20]", "value": 49, "unit": "%"}, {"measurement": "inhibition", "setting": "[21]", "value": "> 80", "unit": "%"}, {"measurement": "inhibition", "setting": "[22]", "value": "< 50", "unit": "%"}, {"measurement": "inhibition", "setting": "[23]", "value": "> 80", "unit": "%"}, {"measurement": "IC50", "setting": "[24]", "value": 0.7, "unit": "nM"}, {"measurement": "IC50", "setting": "BaF3 [25]", "value": 0.2, "unit": "nM"}, {"measurement": "Vd", "setting": "[26]", "value": 4.94, "unit": "L/kg"}, {"measurement": "AUC(0-inf)", "setting": "[27]", "value": 9630, "unit": "ng·h/mL"}, {"measurement": "inhibition", "setting": "[28]", "value": "< 50", "unit": "%"}, {"measurement": "inhibition", "setting": "[29]", "value": "< 50", "unit": "%"}, {"measurement": "inhibition", "setting": "[30]", "value": "> 80", "unit": "%"}, {"measurement": "IC50", "setting": "BaF3 [31]", "value": 10.9, "unit": "nM"}, {"measurement": "inhibition in vivo at 30 mg/kg", "setting": "BaF3 [32]", "value": 88, "unit": "%"}, {"measurement": "fraction unbound", "setting": "[33]", "value": 0.044}, {"measurement": "Activity", "setting": "[34]", "value": "Non-Toxic"}, {"measurement": "inhibition in vivo at 15 mg/kg", "setting": "BaF3 [35]", "value": 85, "unit": "%"}, {"measurement": "inhibition", "setting": "[36]", "value": "< 50", "unit": "%"}, {"measurement": "clearance", "setting": "[37]", "value": 7.83, "unit": "mL/min/kg"}, {"measurement": "inhibition", "setting": "[38]", "value": "< 50", "unit": "%"}, {"measurement": "inhibition", "setting": "[39]", "value": "> 80", "unit": "%"}]}]}
